Measurements reported in patent US5834435A, “Inhibition of TNF-α pleiotropic and cytotoxic effects” (priority 1996, dated 1998).

Columns and labels:
[1] = system: isolated cardiac myocytes; experiment: Intracellular fluorescence brightness in isolated cardiac myocytes; format: cell-based; conditions: 200 μ/ml TNF-α; n=45 cells/group; FIG. 7 insert
Text: As shown, the peak level of intracellular fluorescence brightness was reduced strikingly for the cells treated with 200 μ/ml TNF-α.

[2] = system: isolated cardiac myocytes; experiment: Effects of TNF-α on contractivity of adult cardiac myocytes (cell shortening, video edge detection); format: cell-based, human
Method: Myocardial samples were obtained from organ donors, whose hearts were initially considered for cardiac transplantation but were subsequently deemed unsuitable for transplantation because of blood type or size incompatibility. Freshly isolated myocytes were treated for 60 minutes at 37° C. with single concentration of GMDP (5 μg/ml). Control cells were treated with single concentration of recombinant human TNF-α (Genzyme) that is known to produce negative inotropic effects in isolated cardiac myocytes (200 μ/ml). Cell motion was characterized with video edge detection as previously described in detail (17). Results were expressed as percentage change in cell length from resting values.

[3] = system: patients with terminate stage of cancer
Text: Results were expressed as percentage change in both triglycerides and cholesterol level from pretreatment values.

[4] = system: patients with terminate stage of cancer; remark: listed apart in the source
Text: 27 patients with terminate stage of cancer participated in this study. The study group consisted of 19 females and 8 males between 14 and 59 years of age. 3 of them have had malignant brain tumors glioblastoma multiforme, 9 patients had breast carcinoma with massive metastasis to the liver or brain, one patient had intermediate stage lymphoma, one of them had stomach cancer with liver metastasis, three patients had hepatomas with lung metastasis, and two of them pancreatic cancer with liver metastasis.
19 patients were given GMDP orally at dosage of 50 mg daily as a water solution for fourteen days. 8 patients received a placebo.
Results were expressed as percentage change in LDH activity from pretreatment values.

[5] = system: E6/1.2 anti-GMDP monoclonal antibody; experiment: Antibody capture assay with antigen competition variation; format: binding, mouse; conditions: 1 μg/well and 0.1 μg/well GMDP-Lys-PAA; FIGS. 1A,B and 2
Text: Antibody capture assay (Antibodies: A laboratory Manual (E. Harlow and D. Lane, eds.), Cold Spring Harbor Laboratory, 1988) with antigen competition variation has been used to detect GMDP in human […]. Highly specific mouse E6/1.2 anti-GMDP monoclonal antibody (Ka=2×10^9 M^-1) and GMDP conjugated to polyacrylamide backbone through amino group of lysine (GMDP-Lys-PAA) were obtained from Dr. Nesmeyanov, the Shemyakin and Ovchinnikov Institute of Bioorganic Chemistry, Russian Academy of Sciences, Moscow, Russia.
Briefly, GMDP-Lys-PAA or serial dilutions of human female milk in phosphate buffered saline (PBS) were adsorbed onto wells of microtiter plates for several hours. After washing with PBS, remaining binding sites were blocked by 1 h incubations with 200 μl PBS+3% bovine serum albumin (BSA). After washing with PBS 100 μl of E6/1.2 antibody, diluted 1:1,000 or 1:2,000 with PBS+1% BSA, were added. The incubation was carried out for 1 h at room temperature. […] Optical density at 492 nm was measured.
Two different amounts of GMDP-Lys-PAA in PBS were adsorbed onto wells of microtiter plates (1 μg/well and 0.1 μg/well). […] Inhibition index (I,%) was calculated from: I=(1-Ao/A1)×100, where Ao and A1 are optical densities of samples without or with inhibitor, respectively.

Row | Compound | decrease in the percent change in peak intensity of fluorescence brightness [1] | cell shortening ([2]; cells treated with TNF-α vs control, n=40 cells/group, FIG. 6) | reduction of elevated cholesterol level (percentage change from pretreatment values) ([3]; patient treated with GMDP, FIG. 10) | decreasing for triglycerides concentration (percentage change from pretreatment values) ([3]; treated patients with elevated triglycerides, FIG. 9) | overall clinical condition during the follow up period ([4]; all patients treated with GMDP) | side effects ([4]; orally 50 mg daily as water solution for fourteen days) | decreasing of LDH activity (percentage change from pretreatment values) ([4]; orally 50 mg daily, fourteen days, lowest level at the fourteenth day, FIG. 8) | nausea and vomiting subsided ([4]; patients who had these symptoms of tumor toxicity before treatment) | inhibition of E6/1.2 antibody interaction with the adsorbed GMDP-Lys-PAA [5] | negative inotropic effects of TNF-α in isolated cardiac myocytes ([2]; FIGS. 6 and 7 taken together) | effects of TNF alfa on cell shortening after pretreatment ([2]; GMDP 5 μg/ml, 60 minutes at 37° C., 200 μ/ml TNF alfa, FIG. 6)
1 | TNF-α [reference compound] | ~ 38% | concentration-dependent decrease |  |  |  |  |  |  |  |  | 
2 | CC(=O)NC1C(OC2C(CO)OC(O)C(NC(C)=O)C2OC(C)C(=O)NC(C)C(=O)NC(CCC(=O)O)C(N)=O)OC(CO)C(O)C1O [GMDP, N-acetyl-D-glucosaminyl-(β1-4)-N-acetylmuramyl-L-alanyl-D-isoglutamine] |  |  | 51% | 82% | improved | None | 68% | 7 patients | inhibition | inhibits | completely attenuated
